The nature of data set [1]: In vivo pharmacokinetics (PK) study, plasma concentration. The following applies: mice, single 50 mg/kg IP injection. Further details: species or system C57BL/6 mice. As for the experimental part: Three C57BL/6 mice at 6-8 weeks of age were used in PK study for each time point. After a single dose intraperitoneal (IP) injection of ENL degrader LQ076-122 (50 mg/kg), plasma concentrations of degrader were measured at 6 time points (0.5, 1, 2, 4, 8 and 12 h) from each test animal. The concentrations of LQ076-122 in plasma were maintained above 2 μM for 6 h with the maximum plasma concentration of about 6 μM.
The standard mouse PK study was conducted by Charles River Laboratories. Three C57BL/6 mice at 6-8 weeks of age were used for each time point. After a single dose intraperitoneal (IP) injection of ENL degrader (50 mg/kg), plasma concentrations of degrader were measured at […] (in hours: 0.5, 1, 2, 4, 8 and 12 h) from each test animal.

Data set [2] deals with ENL target genes. The experiment in a line: RT-qPCR of ENL target genes in MV4; 11 cells. The format is cell-based. The following applies: 11 cells, 1, 2 and 4 μM for 6, 12, 18 and 24 h. As for the experimental part: MV4; 11 cells were treated with DMSO, or LQ076-122 at 1, 2, and 4 μM for 6, 12, 18 and 24 h. RT-qPCR analysis was performed to detect the mRNA levels of selected ENL target genes.
(§1) Total RNA was extracted using the RNeasy Plus kit (Qiagen) and reverse-transcribed using the iScript cDNA Synthesis kit (Bio-Rad). RT-qPCR was performed using the Power SYBR Green PCR Master Mix (Applied Biosystems) on the CFX96 Real-Time PCR system (Bio-Rad). Gene expressions were calculated following normalization to 18s rRNA amounts using the comparative cycle threshold (Ct) method.
(Quantitative PCR measures a nucleic acid by following its amplification.)

Data set [3] relates to MV4; 11 cells. The experiment in a line: Apoptosis assay (FITC Annexin V), MV4; 11 cells. The format is cell-based. To be noted: 11 cells, 1, 2 and 4 μM for 24 h. Here is the method:
(§2) Apoptotic cells were measured by the FITC Annexin V Apoptosis Detection Kit (BD Biosciences).
(§3) MV4; 11 or MOLM13 cells were seeded at 0.2×10^6 cells/mL density. Cells were treated with DMSO or ENL degraders at indicated concentrations. Each treatment was done in triplicates. After 24 h treatment, cells were collected and washed with ice-cold PBS once and resuspended in 250 μL of 1× binding buffer containing 5 μL of FITC-Annexin V and PI (BD Biosciences). After 15 min incubation at room temperature in the dark, 250 μL of 1× binding buffer was added and flow cytometry analysis was performed.

Data set [4] concerns ENL target genes. As to the kind of experiment: RT-qPCR of ENL target genes in MOLM13 cells. The format is cell-based. The following applies: MOLM13 cells, 0.5, 1, 2, 4 and 8 μM for 24 h. Here is the method: MOLM13 cells were treated with LQ076-122 (FIG. 14A) and LQ081-108 (FIG. 14B) at 0.5, 1, 2, 4, and 8 μM for 24 h. […] RT-qPCR analysis was performed to detect the mRNA levels of selected ENL target genes.
as §1

The subject of data set [5] is MOLM13 cells. As to the kind of experiment: Apoptosis assay (FITC Annexin V), MOLM13 cells. The format is cell-based. The following applies: MOLM13 cells, 1, 2 and 4 μM for 24 h. As for the experimental part:
as §2, §3

Data set [6] deals with T1, GAS41 (Homo sapiens, UniProt O95619).
T1 construct: host or cells: MV4;11
T1 sequence (O95619 whole entry): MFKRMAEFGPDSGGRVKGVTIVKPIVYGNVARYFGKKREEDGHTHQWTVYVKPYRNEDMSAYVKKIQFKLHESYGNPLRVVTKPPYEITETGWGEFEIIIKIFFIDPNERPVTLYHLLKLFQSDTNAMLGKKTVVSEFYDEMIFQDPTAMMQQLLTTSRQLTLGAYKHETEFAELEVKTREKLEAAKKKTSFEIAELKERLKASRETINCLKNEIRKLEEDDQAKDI
The experiment in a line: Western blot of GAS41 protein level in MV4; 11 cells. The format is cell-based. To be noted: 11 cells, 0.3, 1, 3, 10 and 30 μM for 24 h. Here is the method:
MV4; 11 cells were treated with LQ076-122, or LQ081-107 at 0.3, 1, 3, 10, and 30 μM for 24 h. DMSO treated cells were used as control. Cells were lysed and expression of ENL and GAS41 was assessed by Western analysis.
After ENL degrader treatment, cells were collected, lysed, and total cell lysates were used for Western blot. The following primary antibodies were used: ENL (Cell Signaling Technology), GAS41 (Santa Cruz), GAPDH (Santa Cruz), β-actin (Sigma). Blots were detected using HRP-conjugated secondary antibodies.
Background: In western blotting, separated proteins are transferred to a membrane and probed.

In data set [7] the test system is ENL-dependent MV4; 11 cells. The experiment in a line: Cell viability (CellTiter-Glo), MV4; 11 cells. The following applies: 11 cells, 0.5, 1, 2 and 4 μM for 72 h. It is filed as cell-based. A digest of the protocol: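 MV4;11 cells (ENL-dependent) were seeded at 2×10^5 cells/mL and exposed to compound or DMSO, mostly for 72 h, with some runs at 3 or 6 days. Concentrations ranged from 10 nM to 10 μM depending on the run. Viability was read by CellTiter-Glo luminescence and normalized to DMSO.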
A general note: ATP-based viability assays read luminescence as a measure of living cells.

In data set [8] the test system is ENL-dependent MOLM13 leukemia cells. The experiment in a line: Cell viability (CellTiter-Glo), MOLM13 cells. The format is cell-based. To be noted: MOLM13 cells, 0.5, 1, 2 and 4 μM for 72 h. As for the experimental part:
MV4; 11 (FIG. 13A), MOLM13 (FIG. 13B) and Jurkat (FIG. 13C) cells were seeded at 2×10^5 cells/mL density and treated with DMSO or indicated compounds 0.5, 1, 2 and 4 μM for 72 h. Cell viability was measured using CellTiter-Glo reagent (Promega) and relative cell viability was calculated by normalization to DMSO samples.
MV4; 11 or MOLM13 cells were seeded at 0.2×10^6 cells/mL density. Cells were treated with DMSO or ENL degraders at indicated concentrations. Each treatment was done in triplicates. After 72 h treatment, 100 μL of cell suspension from each treatment was mixed with 25 μL of CellTiter-Glo reagent (Promega) and incubated for 10 min before the luminescence signals were detected on a plate reader.

The source of these data is patent publication US20230391765A1, “HETEROBIFUNCTIONAL COMPOUNDS AS DEGRADERS OF ENL” (ICAHN SCHOOL OF MEDICINE AT MOUNT SINAI, priority 2020, published 2023).

Take `Cc1ncsc1-c1ccc(CNC(=O)[C@@H]2C[C@@H](O)CN2C(=O)[C@@H](NC(=O)CCCCCCCCCCNC(=O)c2ccc(C(=O)Nc3ccc4[nH]c(CN5CCC[C@@H]5C)nc4c3)cc2)C(C)(C)C)cc1` [LQ076-122, N^1-(11-(((S)-1-((2S,4R)-4-hydroxy-2-((4-(4-methylthiazol-5-yl)benzyl)carbamoyl)pyrrolidin-1-yl)-3,3-dimethyl-1-oxobutan-2-yl)amino)-11-oxoundecyl)-N^4-(2-(((S)-2-methylpyrrolidin-1-yl)methyl)-1H-benzo[d]imidazol-5-yl)terephthalamide]: the “concentration in plasma maintained for 6 h” value in data set [1] is “above 2 μM”. Further, the maximum plasma concentration entry in data set [1] is listed as “about 6 μM”. Further, the “ENL target gene expression (mRNA levels)” value in data set [2] is “reduced ENL target gene expression in a concentration- and time-dependent manner”; in data set [4] it was “reduced ENL target gene expression in a concentration-dependent manner”. For the same compound, the induction of apoptosis entry in data set [3] and in data set [5] was “induced apoptosis” throughout. Moreover, in data set [6], the “reduction of GAS41 protein level” value is “but not the level of another YEATS domain-containing protein GAS41”. Besides, the “suppression of cell growth (relative cell viability)” value in data set [7] and in data set [8] was “selectively suppressed cell growth” each time.
